Assay results taken from patent publication US7659081B2, “Determination of AM-binding proteins and the association of adrenomedullin (AM) therewith” (The United States of America as represented by the …, priority 1999, dated 2010).
In brackets after ≈: the same amount, converted by molar mass.

Assays:
[1] = tested on: E. coli cells (ATCC 35218); type: cell-based
Experimental: FIG. 9 illustrates the effect of factor H on AM activity. […] Values represent mean and standard deviation of four independent determinations. […] Results are expressed in inhibition units (10 units correspond to 1 mm of diameter in the inhibition halo). MIC values were estimated by performing a linear regression and determining the x-intercepts. […] Values represent mean and standard deviation of the mean of eight determinations.
Antimicrobial activity was measured using E. coli cells (ATCC 35218, Gaithersburg, Md.) and a radial diffusion assay as previously described (R. I. Lehrer et al., 1991, J. Immunol. Methods 137:167-173). Briefly, bacteria were incorporated into a thin underlay gel that contained 1% agarose, 2 mM HEPES pH 7.2, and 0.3 mg/ml of trypticase soy broth powder. After polymerization of the gel, small wells (10 μl capacity) were carved in the agar. Test substances were added and allowed to diffuse for 3 hr at 37° C. […] The diameters of the inhibition halos were measured to the nearest 0.1 mm and, after subtracting the diameter of the well, were expressed on inhibition units (10 units=1 mm). […]
For statistical calculations, MIC values were analyzed by the Student's t test, cAMP values were analyzed with a one-way analysis of variance (ANOVA) and the Tukey's test, and P<0.05 was considered significant.

AMBP-1 (factor H) = target: T1, AMBP-1 (factor H) (Homo sapiens, UniProt P08603); test: Ligand blot competition of labeled AM binding to plasma AMBP-1; settings: 7 μM unlabeled peptide, preincubation 6 hr at 4° C.
T1 construct: Total proteins derived from human plasma (2 μl) were electrophoretically fractionated; from tissue; host or cells: human plasma
Experimental: Total proteins derived from human plasma (2 μl) were electrophoretically fractionated on 3-8% Tris-acetate gel (Novex, San Diego, Calif.) under non-reducing conditions. For the ligand blotting experiment, the proteins were transferred to a […] nitrocellulose membrane that was incubated for […] with 1% Nonidet P-40 (NP-40). Non-specific binding was further blocked with a 2 hr incubation in TBS containing 0.1% ATC. Incubations with 70 nM AM labeled with biotin, fluorescein, or DNP were carried out overnight at 4° C. in blocking buffer containing 0.1% TWEEN® 20 nonionic detergent. For biotin detection, the ligand blot was incubated with an avidin-biotin-peroxidase complex and the AEC reagent (Vector Laboratories, Inc., Burlingame, Calif.). For fluorescein and DNP, the ligand blots were incubated 1 hr at room temperature with rabbit anti-fluorescein or anti-DNP IgG, respectively, (1:1000 in incubation buffer; Molecular Probes, Inc.). Anti-rabbit antibody labeled with alkaline phosphatase (1:2000; Dako Corporation, Carpenteira, Calif.) was added for 0.5 hr, and the blot was developed using 4-nitro blue tetrazolium chloride/5-bromo-4-chloro-3-indolyl phosphate (NBT/BCIP) as the color-substrate solution (Roche Molecular Biochemicals, Indianapolis, Ind.).
Following this preincubation, labeled full-length AM was introduced and incubated overnight at 4° C.

factor H = factor H (Homo sapiens, UniProt P08603); test: Cofactor activity of factor H: C3b cleavage with factor I; type: biochemical; settings: 24 hr at 37° C.
Experimental: FIG. 10 illustrates the effect of AM on factor H activity. C3b (104 kDa α′ chain and 71 kDa β chain) was incubated 24 hr at 37° C. with factor H, factor I, and various peptides. Cleavage of the C3b α′ chain produced three bands with molecular weights 68 kD, 43 kD, and 42 kD.
To measure the cofactor activity of factor H, C3b (28 pmols) was incubated with factor I (0.16 pmols) and factor H (0.16 pmols) in the presence or absence of AM and related peptides for 24 hr at 37° C. in a final volume of 50 μl of PBS. Samples were fractionated by SDS-PAGE using 4-12% Tris-Bis gels (Novex) under reducing conditions, and stained with Coomassie Blue. C3b and factor I were purchased from Advanced Research Technologies (San Diego, Calif.). FIGS. 10A and 10B.

AM-binding protein = test: Competitive displacement of 125I-AM on radioligand blot strips; settings: increasing concentrations, 10^−10 to 10^−6 M
Experimental: Further detection and characterization of AM-BPs were performed using radioligand blotting procedures similar to those described for IGF binding proteins in plasma (P. Hossenlopp et al., 1986, Anal. Biochem. 154:138-146). Briefly, plasma or serum from the ten species was diluted 1:5 with water and further mixed 1:2 with SDS Tris-glycineglycerol loading buffer and incubated for 10 min at 70° C. Plasma or serum volumes equivalent to 1.5 μl were loaded onto 10% acrylamide gels under non-reducing conditions. Proteins were separated at 115 v for 0.5 hr and transferred to 0.2 μm nitrocellulose using a semi-moist transfer (Bio-Rad Hercules, Calif.) at 18 v for 42 min. Molecular weight markers (29 kD, 43 kD, 66 kD, 78 kD, and 116 kD) were added to complementary lanes on each gel to assess the relative sizes of the resolved proteins.
Nitrocellulose blots were incubated for 15 min with 1.5% NP-40 (Sigma, St. Louis, Mo.). Nonspecific binding was further blocked with a 4 hr incubation of the nitrocellulose in phosphate buffered saline containing either 1% BSA (RIA Grade, SIGMA, St. Louis, Mo.) or 1% AHC. Incubations with radiolabeled recombinant human ^125I-AM were performed overnight at room temperature with agitation, with 80,000 CPM ^125I-hAM per 5 ml protein blocking matrix. […]

insulin secretion = settings: cited from earlier work

T1 sequence (P08603 19-1231): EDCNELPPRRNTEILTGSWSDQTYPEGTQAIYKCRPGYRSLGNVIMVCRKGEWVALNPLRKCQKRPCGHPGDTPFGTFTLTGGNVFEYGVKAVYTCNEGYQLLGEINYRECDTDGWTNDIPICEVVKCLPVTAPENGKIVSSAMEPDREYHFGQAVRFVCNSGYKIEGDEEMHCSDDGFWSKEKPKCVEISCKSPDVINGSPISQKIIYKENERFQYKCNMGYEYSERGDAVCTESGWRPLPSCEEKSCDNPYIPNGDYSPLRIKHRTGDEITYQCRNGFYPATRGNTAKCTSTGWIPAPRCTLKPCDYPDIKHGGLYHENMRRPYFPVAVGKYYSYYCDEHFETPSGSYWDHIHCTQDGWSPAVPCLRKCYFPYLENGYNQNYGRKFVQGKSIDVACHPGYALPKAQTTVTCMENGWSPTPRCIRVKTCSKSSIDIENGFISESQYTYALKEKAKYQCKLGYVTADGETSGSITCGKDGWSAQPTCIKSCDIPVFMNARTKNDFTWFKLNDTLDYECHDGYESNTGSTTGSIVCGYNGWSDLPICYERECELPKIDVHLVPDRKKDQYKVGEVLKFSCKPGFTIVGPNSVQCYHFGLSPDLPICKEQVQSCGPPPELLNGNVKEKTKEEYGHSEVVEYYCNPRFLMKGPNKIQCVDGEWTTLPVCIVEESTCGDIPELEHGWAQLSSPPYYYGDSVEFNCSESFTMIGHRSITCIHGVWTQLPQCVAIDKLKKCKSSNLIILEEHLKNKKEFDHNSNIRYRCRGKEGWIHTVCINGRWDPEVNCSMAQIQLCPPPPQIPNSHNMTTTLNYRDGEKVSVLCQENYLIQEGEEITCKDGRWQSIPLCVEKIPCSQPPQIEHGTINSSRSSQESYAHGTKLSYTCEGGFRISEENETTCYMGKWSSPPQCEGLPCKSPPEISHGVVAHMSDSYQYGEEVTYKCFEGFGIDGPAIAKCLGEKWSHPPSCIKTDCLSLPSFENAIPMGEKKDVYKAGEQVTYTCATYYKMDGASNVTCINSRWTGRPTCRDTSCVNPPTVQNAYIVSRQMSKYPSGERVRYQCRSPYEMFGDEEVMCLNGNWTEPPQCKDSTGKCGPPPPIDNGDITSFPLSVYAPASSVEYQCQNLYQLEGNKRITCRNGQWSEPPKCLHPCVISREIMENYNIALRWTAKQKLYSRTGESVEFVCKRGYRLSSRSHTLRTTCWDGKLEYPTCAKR
Chain of factor H (P08603 19-1231): as above

MIC value [1]: 18.4 ± 1.3 µg/mL (≈ 3.05 µM)
Effect on fH/fI-mediated cleavage of C3b (factor H): enhances fH/fI-mediated cleavage of C3b
Displacement of 125I-AM from AMBPs (AM-binding protein): linear competitive displacement
SMILES: CC[C@H](C)[C@H](NC(=O)[C@H](CCC(N)=O)NC(=O)[C@H](Cc1c[nH]cn1)NC(=O)[C@H](C)NC(=O)[C@H](CC(C)C)NC(=O)[C@H](CCCCN)NC(=O)[C@H](CCC(N)=O)NC(=O)[C@@H](NC(=O)[C@@H](NC(=O)[C@@H]1CSSC[C@H](NC(=O)CNC(=O)[C@H](Cc2ccccc2)NC(=O)[C@H](CO)NC(=O)[C@H](CCCNC(=N)N)NC(=O)[C@H](CC(C)C)NC(=O)CNC(=O)[C@H](CCC(N)=O)NC(=O)[C@H](Cc2ccccc2)NC(=O)[C@H](CC(N)=O)NC(=O)[C@H](CC(N)=O)NC(=O)[C@H](CCSC)NC(=O)[C@H](CO)NC(=O)[C@H](CCC(N)=O)NC(=O)[C@H](CCCNC(=N)N)NC(=O)[C@@H](N)Cc2ccc(O)cc2)C(=O)N[C@@H](CCCNC(=N)N)C(=O)N[C@@H](Cc2ccccc2)C(=O)NCC(=O)N[C@@H]([C@@H](C)O)C(=O)N1)[C@@H](C)O)C(C)C)C(=O)N[C@@H](Cc1ccc(O)cc1)C(=O)N[C@@H](CCC(N)=O)C(=O)N[C@@H](Cc1ccccc1)C(=O)N[C@H](C(=O)N[C@@H](CC(=O)O)C(=O)N[C@@H](CCCCN)C(=O)N[C@@H](CC(=O)O)C(=O)N[C@@H](CCCCN)C(=O)N[C@@H](CC(=O)O)C(=O)N[C@@H](CC(N)=O)C(=O)N[C@H](C(=O)N[C@@H](C)C(=O)N1CCC[C@H]1C(=O)N[C@@H](CCCNC(=N)N)C(=O)N[C@@H](CO)C(=O)N[C@@H](CCCCN)C(=O)N[C@H](C(=O)N[C@@H](CO)C(=O)N1CCC[C@H]1C(=O)N[C@@H](CCC(N)=O)C(=O)NCC(=O)N[C@@H](Cc1ccc(O)cc1)C(N)=O)[C@@H](C)CC)C(C)C)[C@@H](C)O [AM, Adrenomedullin]
Competition for labeled AM/AMBP-1 complex on ligand blot (AMBP-1 (factor H)): able to dissociate the AM/AMBP-1 (AM/fH) complex
Insulin secretion (insulin secretion): inhibits insulin secretion in a dose-dependent manner
